Test results taken from patent US20160175318A1, “COMPOSITIONS COMPRISING ANTIBACTERIAL AGENT AND TAZOBACTAM” (WOCKHARDT LIMITED, priority 2013, published 2016).
Like-named read-outs stand apart in the source and are kept apart here.

Columns and labels:
Format in all cases: cell-based
E. cloacae M-20 = assay: MIC by agar dilution (CLSI) against highly resistant ESBL strain
Protocol: (§1) The results on activity of cefepime and other cephalosporin antibacterial agents in combination with tazobactam against highly resistant ESBL strains are given Table 1. In a typical study, overnight grown bacterial cultures were diluted appropriately and inoculated on the agar media containing doubling dilutions of the antibiotic. Observation for growth or no growth was performed after 16-20 h of incubation at 35±2° C. in ambient air. The overall procedure was performed as per Clinical and Laboratory Standards Institute (CLSI) recommendations. This experimental was followed for Examples 2-4 and 6 below (Table 2-4 and 7).

E. coli M50 [1] = assay: as above
Protocol: as §1

E. coli 7MP [2] = assay: as above
Protocol: as §1

E. coli B123 = assay: as above; settings: for Activity (MIC, method of Example 1), Table 7: E. coli B-123
Protocol: as §1

E. coli B-89 [3] = assay: as above
Protocol: as §1

E. coli M-138 = assay: Quantitative drug diffusion assay (disc, zone of inhibition, CLSI); set-up: key to Interpretation of zone as per CLSI recommendations: R: Resistant; I: Intermediate; S: Sensitive (Interpretation as per CLSI recommendations, 2010)
Description: (§2) Activity of cefepime in combination with tazobactam and various penicillins in combination with respective ESBL inhibitors was also investigated against highly resistant ESBL strains in quantitative drug diffusion assay performed as per CLSI recommendations (Clinical and Laboratory Standards Institute (CLSI), performance Standards for Antimicrobial Susceptibility Testing, 20th Informational Supplement, M 100-S20, Volume 30, No. 1, 2010).
(§3) In a typical study, overnight grown bacterial cultures after appropriate dilution were seed inoculated in the molten, cooled agar media and plates poured. Antibiotics containing 6 mm diameter discs were place on the top of the agar surface. Zone of inhibition based observation was performed after 16-18 h of incubation at 35±2° C. in ambient air. The overall procedure was performed as per CLSI recommendations (Table 5 and 6). These assays are routinely used in determining possibility of treating a particular infection using antibiotic and/or their combinations. For example, in case of treating an infection caused by E. coli (M138) using Augmentin® [commercially available combination: Amoxicillin (500 mg)+Clavulanic acid (125 mg)], the zone inhibition values need to be in the sensitive (S) range.

E. coli M50 [4] = assay: as above; set-up: key to Interpretation of zone as per CLSI recommendations: R: Resistant; I: Intermediate; S: Sensitive (Interpretation as per CLSI recommendations, 2010)
Description: as §2, §3

E. coli 7MP [5] = assay: as above; set-up: key to Interpretation of zone as per CLSI recommendations: R: Resistant; I: Intermediate; S: Sensitive (Interpretation as per CLSI recommendations, 2010)
Description: as §2, §3

E. coli S-112 = assay: as above; set-up: key to Interpretation of zone as per CLSI recommendations: R: Resistant; I: Intermediate; S: Sensitive (Interpretation as per CLSI recommendations, 2010)
Description: as §2, §3

E. coli B-89 [6] = assay: as above; set-up: key to Interpretation of zone as per CLSI recommendations: R: Resistant; I: Intermediate; S: Sensitive (Interpretation as per CLSI recommendations, 2010)
Description: as §2, §3

E. coli B-123 = assay: as above; set-up: key to Interpretation of zone as per CLSI recommendations: R: Resistant; I: Intermediate; S: Sensitive (Interpretation as per CLSI recommendations, 2010)
Description: as §2, §3

[7] = E. cloacae M-20, with Tazobactam 4 mcg
[8] = E. cloacae M-20, with Tazobactam 8 mcg
[9] = E. coli 7MP, with Tazobactam 4 mcg
[10] = E. coli 7MP, with Tazobactam 8 mcg
[11] = Escherichia coli, B123, E. coli B123, with Tazobactam 4 mcg, read-out: MIC
[12] = Escherichia coli, B123, E. coli B123, with Tazobactam 8 mcg, read-out: MIC
[13] = E. coli B-89, with Tazobactam 4 mcg
[14] = E. coli B-89, with Tazobactam 8 mcg
[15] = ESBL inhibitor 0 mcg (antibiotic alone)
[16] = Table 6, with Tazobactam 10 mcg

## CO/N=C(\C(=O)N[C@@H]1C(=O)N2C(C(=O)[O-])=C(C[n+]3cccc4c3CCC4)CS[C@H]12)c1csc(N)n1 [Cefpirome]
E. cloacae M-20; E. cloacae M-20, antibiotic alone
  Activity (MIC, method of Example 1), Table 7: > 64 µg/mL
E. cloacae M-20; E. cloacae M-20, with Clavulanic acid 4 mcg
  Activity (MIC, method of Example 1), Table 7: 16 µg/mL
E. cloacae M-20; E. cloacae M-20, with Clavulanic acid 8 mcg
  Activity (MIC, method of Example 1), Table 7: 8 µg/mL
E. cloacae M-20; E. cloacae M-20, with Sulbactam 4 mcg
  Activity (MIC, method of Example 1), Table 7: 32 µg/mL
E. cloacae M-20; E. cloacae M-20, with Sulbactam 8 mcg
  Activity (MIC, method of Example 1), Table 7: 16 µg/mL
E. cloacae M-20; [7]
  Activity (MIC, method of Example 1), Table 7: 8 µg/mL
  MIC: 8 µg/mL
E. cloacae M-20; [8]
  MIC: 4 µg/mL
E. cloacae M-20; E. cloacae M-20, with Tazobactam, (4 mcg)
  Activity (MIC, method of Example 1), Table 7: 4 µg/mL
E. cloacae M-20; Enterobacter cloacae, M20, 20 h, E. cloacae M-20, Tazobactam 0 mcg (antibiotic alone), read-out: MIC
  MIC: > 64 µg/mL
E. coli M50 [1]; Escherichia coli, 20 h, Tazobactam 0 mcg (antibiotic alone), read-out: MIC
  MIC: > 64 µg/mL
E. coli M50 [1]; with Tazobactam 4 mcg
  MIC: 2 µg/mL
E. coli M50 [1]; with Tazobactam 8 mcg
  MIC: 2 µg/mL
E. coli 7MP [2]; E. coli 7MP, antibiotic alone
  Activity (MIC, method of Example 1), Table 7: > 64 µg/mL
E. coli 7MP [2]; E. coli 7MP, with Clavulanic acid 4 mcg
  Activity (MIC, method of Example 1), Table 7: 16 µg/mL
E. coli 7MP [2]; E. coli 7MP, with Clavulanic acid 8 mcg
  Activity (MIC, method of Example 1), Table 7: 8 µg/mL
E. coli 7MP [2]; E. coli 7MP, with Sulbactam 4 mcg
  Activity (MIC, method of Example 1), Table 7: 16 µg/mL
E. coli 7MP [2]; E. coli 7MP, with Sulbactam 8 mcg
  Activity (MIC, method of Example 1), Table 7: 16 µg/mL
E. coli 7MP [2]; [9]
  Activity (MIC, method of Example 1), Table 7: 8 µg/mL
  MIC: 8 µg/mL
E. coli 7MP [2]; [10]
  MIC: 4 µg/mL
E. coli 7MP [2]; E. coli 7MP, with Tazobactam, (4 mcg)
  Activity (MIC, method of Example 1), Table 7: 4 µg/mL
E. coli 7MP [2]; Escherichia coli, 7MP, 20 h, E. coli 7MP, Tazobactam 0 mcg (antibiotic alone), read-out: MIC
  MIC: > 64 µg/mL
E. coli B123; antibiotic alone
  Activity (MIC, method of Example 1), Table 7: > 64 µg/mL
E. coli B123; with Clavulanic acid 4 mcg
  Activity (MIC, method of Example 1), Table 7: 16 µg/mL
E. coli B123; with Clavulanic acid 8 mcg
  Activity (MIC, method of Example 1), Table 7: 8 µg/mL
E. coli B123; with Sulbactam 4 mcg
  Activity (MIC, method of Example 1), Table 7: 8 µg/mL
E. coli B123; with Sulbactam 8 mcg
  Activity (MIC, method of Example 1), Table 7: 16 µg/mL
E. coli B123; with Tazobactam 4 mcg
  Activity (MIC, method of Example 1), Table 7: 4 µg/mL
E. coli B123; with Tazobactam, (4 mcg)
  Activity (MIC, method of Example 1), Table 7: 2 µg/mL
E. coli B123; Escherichia coli, B123, E. coli B123, Tazobactam 0 mcg (antibiotic alone), read-out: MIC
  MIC: > 64 µg/mL
E. coli B123; [11]
  MIC: 4 µg/mL
E. coli B123; [12]
  MIC: 2 µg/mL
E. coli B-89 [3]; [13]
  MIC: 4 µg/mL
E. coli B-89 [3]; [14]
  MIC: 2 µg/mL
E. coli B-89 [3]; Escherichia coli, B89, 20 h, E. coli B-89, Tazobactam 0 mcg (antibiotic alone), read-out: MIC
  MIC: > 64 µg/mL
E. coli M-138; [15]
  Zone of Inhibition: Nil
E. coli M-138; Table 6, ESBL inhibitor 0 mcg
  Interpretation of zone as per CLSI recommendations: (R)
E. coli M-138; [16]
  Interpretation of zone as per CLSI recommendations: (S)
E. coli M-138; with Tazobactam 10 mcg
  Zone of Inhibition: 21 mm
E. coli M50 [4]; [15]
  Zone of Inhibition: Nil
E. coli M50 [4]; Table 6, ESBL inhibitor 0 mcg
  Interpretation of zone as per CLSI recommendations: (R)
E. coli M50 [4]; [16]
  Interpretation of zone as per CLSI recommendations: (S)
E. coli M50 [4]; with Tazobactam 10 mcg
  Zone of Inhibition: 22 mm
E. coli 7MP [5]; [15]
  Zone of Inhibition: 11 mm
E. coli 7MP [5]; Table 6, ESBL inhibitor 0 mcg
  Interpretation of zone as per CLSI recommendations: (R)
E. coli 7MP [5]; [16]
  Interpretation of zone as per CLSI recommendations: (S)
E. coli 7MP [5]; with Tazobactam 10 mcg
  Zone of Inhibition: 18.5 mm
E. coli S-112; [15]
  Zone of Inhibition: 15 mm
E. coli S-112; Table 6, ESBL inhibitor 0 mcg
  Interpretation of zone as per CLSI recommendations: (I)
E. coli S-112; [16]
  Interpretation of zone as per CLSI recommendations: (S)
E. coli S-112; with Tazobactam 10 mcg
  Zone of Inhibition: 20 mm
E. coli B-89 [6]; [15]
  Zone of Inhibition: Nil
E. coli B-89 [6]; Table 6, ESBL inhibitor 0 mcg
  Interpretation of zone as per CLSI recommendations: (R)
E. coli B-89 [6]; [16]
  Interpretation of zone as per CLSI recommendations: (S)
E. coli B-89 [6]; with Tazobactam 10 mcg
  Zone of Inhibition: 17.5 mm
E. coli B-123; [15]
  Zone of Inhibition: 8 mm
E. coli B-123; Table 6, ESBL inhibitor 0 mcg
  Interpretation of zone as per CLSI recommendations: (R)
E. coli B-123; [16]
  Interpretation of zone as per CLSI recommendations: (S)
E. coli B-123; with Tazobactam 10 mcg
  Zone of Inhibition: 20 mm

## CO/N=C(\C(=O)N[C@@H]1C(=O)N2C(C(=O)O)=C(CSc3nc(=O)c(=O)[nH]n3C)CS[C@H]12)c1csc(N)n1 [Ceftriaxone]
E. cloacae M-20; [7]
  MIC: >64 µg/mL
E. cloacae M-20; [8]
  MIC: >64 µg/mL
E. cloacae M-20; Enterobacter cloacae, M20, 20 h
  MIC: > 128 µg/mL
E. coli M50 [1]; Escherichia coli, M50, 20 h, Tazobactam 0 mcg (antibiotic alone)
  MIC: 128 µg/mL
E. coli M50 [1]; with Tazobactam 8 mcg
  MIC: 64 µg/mL
E. coli 7MP [2]; E. coli 7MP, Tazobactam 0 mcg (antibiotic alone)
  MIC: >128 µg/mL
E. coli 7MP [2]; [9]
  MIC: >64 µg/mL
E. coli 7MP [2]; [10]
  MIC: >64 µg/mL
E. coli 7MP [2]; Escherichia coli, 7MP, 20 h
  MIC: > 128 µg/mL
E. coli B123; E. coli B123, Tazobactam 0 mcg (antibiotic alone)
  MIC: >128 µg/mL
E. coli B123; E. coli B123, with Tazobactam 4 mcg
  MIC: >64 µg/mL
E. coli B123; E. coli B123, with Tazobactam 8 mcg
  MIC: >64 µg/mL
E. coli B123; Escherichia coli, B123
  MIC: > 128 µg/mL
E. coli B123; [11]
  MIC: > 64 µg/mL
E. coli B123; [12]
  MIC: > 64 µg/mL
E. coli B-89 [3]; E. coli B-89, Tazobactam 0 mcg (antibiotic alone)
  MIC: >128 µg/mL
E. coli B-89 [3]; [13]
  MIC: >64 µg/mL
E. coli B-89 [3]; [14]
  MIC: >64 µg/mL
E. coli B-89 [3]; Escherichia coli, B89, 20 h
  MIC: > 128 µg/mL
